US11779600B2, “Methods of treating or preventing alzheimer's disease and associated conditions” (CEDARS-SINAI MEDICAL CENTER, priority 2016, dated 2023)

Tested on: 6E10+-Aβ plaque
Assay: 6E10+-Aβ plaque burden in ADtg mouse brain sections
Type: in vivo
Conditions: same brain sections (FIG. 11C)
Protocol: ADtg mice (10 months old) received subcutaneous injections of GA [also known as Cop-1 and Copaxone®; 100 μg in phosphate-buffered saline (PBS)] or PBS alone (control group) twice a week for 1 week and then once a week for 8 weeks. For evaluation of innate immune infiltration to the brain by flow cytometry, 10-month-old ADtg mice received subcutaneous injections of GA ([…] in PBS) or PBS alone twice a week for 1 week and then once a week for 3 weeks. At the end of the study, all mice were anaesthetized and then perfused with ice-cold PBS with 0.5 mM EDTA, after which their organs were collected and analyzed or fixed in 2.5% paraformaldehyde (Sigma-Aldrich), and cryoprotected with 30% sucrose for further histological analysis. CD115^+ monocytes from mice donors were isolated as previously reported (Koronyo et al., Brain: a journal of neurology 2015,138:2399-2422). […] For microscopic analysis, we used a Carl Zeiss Axio Imager Z1 fluorescence microscope equipped with ApoTome (Carl Zeiss MicroImaging, Inc.). […] The number and area (μm^2) of OPN+ cells, Iba1^+CD45^hi cells, GFAP^+ cells, Thio-S^+ amyloid-βplaques and 4G8^+ amyloid-βplaques were determined by examining four to six coronal sections per mouse at 150-μm intervals over an area covering both the hippocampal and cortical (including entorhinal and cingulate cortex) regions. […]

glatiramer acetate [GA]
6E10+-Aβ plaque burden compared with PBS controls: substantial reduction
